Measured values as given in patent publication US20060020029A1, “Pharmaceutical compositions from ethnobotanicals” (priority 2004, published 2006).
In brackets after ≈: the same amount, converted by molar mass. Several values for one entry are separate records, joined by “and”; a condition that tells them apart may be missing. Identical values can stand only once. Like-named read-outs stand apart in the source and are kept apart here.

What was measured:
[1] = tested on: RSV-A2; assay: CPE assay, RSV-A2 in Hep-2 cells; conditions: Hep-2 cells, CPE assay
Procedure: The cell line was propagated in MEM supplemented with 10% heat-inactivated fetal bovine serum (FBS) containing 100 μg/ml of antibiotics (streptomycin/penicillin). […] The overnight medium (MEM containing 10% FBS) was removed, and wells were rinsed twice with 1× phosphate buffer saline (PBS, 200 μl) before adding 10×TCID50 of RSV suspension in fresh medium (MEM plus 2% FBS) to each well, except for cell only wells. […] CellTiter 96 Aqueous Non-Radioactive Cell Proliferation Assay (Promega) was used to monitor the antiviral activity following the manufacturer's instruction. After incubation, the cells were rinsed twice with 200 μl of 1×PBS prior to the addition of 100 μl of fresh medium (MEM plus 10% FBS). […] The extent of cell viability was measured at 490 nm using an ELISA reader, and the absorbance was used to calculate percent inhibition. Antiviral activity of each EB fraction or ribavirin is expressed as IC50, which represents the concentration of the test substance required to reduce the virus infection (as measured by the destruction of the host cells) by 50%.
Hep-2 cells were used in the CPE assay to determine anti-RSV properties.

[2] = tested on: Vero cells; assay: Cytotoxicity (MTS) in uninfected Vero cells; conditions: isolated compounds
[3] = tested on: Herpes simplex virus type 1 (MacIntyre strain); assay: CPE assay, HSV-1 specificity; format: cell-based; conditions: CPE assay with MDCK or Vero cells
Procedure: (§1) To determine whether the fractions are specific RSV inhibitors rather than general antiviral agents, the inventors tested them against influenza type A/Shangdong/09/93 (H3N2), herpes simplex type 1 (MacItyre), and herpes simplex type 2 (MS) using the CPE assay system.
(§2) CJ4-16-4 was tested using influenza type A, herpes simplex virus type 1, and herpes simplex virus type 2 using the CPE assay with MDCK or Vero cells.

[4] = tested on: RSV-Long (Cotton Rat adapted strain); assay: CPE assay, RSV-Long cotton rat adapted strain; format: cell-based, respiratory syncytial virus; conditions: Hep-2 cells, CPE assay
[5] = tested on: RSV (Long strain); assay: CPE assay, RSV-Long in Hep-2 cells; format: cell-based, respiratory syncytial virus
[6] = tested on: Influenza A-Shangdong/09/93 (H3N2); assay: CPE assay, influenza A specificity; format: cell-based, influenza type A; conditions: CPE assay with MDCK or Vero cells
Procedure: as §1, §2

[7] = tested on: Herpes simplex virus type 2 (MS-strain); assay: CPE assay, HSV-2 specificity; format: cell-based; conditions: CPE assay with MDCK or Vero cells
Procedure: as §1, §2

[8] = tested on: Hep-2 cells; assay: Cytotoxicity (MTS) in uninfected Hep-2 cells; conditions: isolated compounds
[9] = tested on: MDCK cells; assay: Cytotoxicity in MDCK cells; conditions: isolated compounds
[10] = tested on: RSV B; assay: CPE assay, RSV-B in Hep-2 cells; format: cell-based, respiratory syncytial virus
[11] = tested on: RSV; assay: Viral yield assay (VYA); format: cell-based, respiratory syncytial virus
Procedure: The materials and methods used for VYA are as follows. […] Each concentration of the test articles or control drug was tested in triplicate wells. […] The aliquots from each of the eight wells of a given column were transferred to the first column of a fresh 96-well monolayer culture of Hep-2 cells. The contents were mixed and serially diluted across the remaining columns of the secondary plate. Each column of the original primary plate was diluted across a separate plate in this manner. The cultures were incubated for 7 additional days, and the end point was monitored by CPE assay as described above.

[12] = tested on: RSV-Long; assay: Plaque reduction assay (PRA); format: cell-based; conditions: human respiratory syncytial virus, HEp-2; Table 3, plaque reduction assay
Procedure: The materials and methods used for PRA are as follows. […] The overlay was prepared by mixing 1 part of 1.2% SeaPlaque and 1 part 2×MEM containing 4% FBS, plus appropriate concentrations of each EB fraction or ribavirin. Each concentration of the EB fraction or ribavirin was tested in duplicate wells. After 7 days, the agarose was carefully removed and cells were rinsed twice with 2 ml of PBS. The cell monolayer was fixed using 0.2% crystal violet in 20% methanol at room temperature. After 30 minutes, the fixer was removed by washing with deionized water, and the plates were air-dried prior to counting plaques. The number of plaques obtained for each fraction or ribavirin was expressed as a percentage of the control. The percentage values obtained were used to calculate IC50 values.

[13] = in vitro; conditions: African green monkey
[14] = tested on: RSV A2; assay: Cotton rat RSV infection model, pulmonary titer
Procedure: All groups consisted of four randomly selected cotton rats. All test materials were administered intraperitoneally with once daily dosing. The placebo group was administered distilled water at volumes and schedules identical to the other groups receiving investigational test articles. In general, timing of administration of ribavarin to the ribavarin-treated group paralleled that of the other treatment groups except that initiation of dosing was on Day 1 for Experiments 1 and 2 and Day 0 for Experiment 3. The dose of ribavarin was 90 mg/kg/day in Experiments 1 and 3 and 180 mg/kg/day in Experiment 2. All animals were inoculated intranasally with approximately 100 median cotton rat infectious doses (CRID50) of RSV A2 on Day 0. Experiments were terminated on either Day 3 or 4 post-infection. […] On the day that the experiment was terminated, all CRs were sacrificed using CO2 to asphyxiate the animals. The lungs from the animals were subsequently removed. The lungs of sacrificed animals were removed, rinsed in sterile phosphate-buffered saline (PBS; pH 7.2) and weighed. Each set of lungs was then transpleurally lavaged using 3 ml of 2% FCS-MEM media. The resulting lung fractions were kept on ice until they were assayed for RSV. The lung fractions of animals from each group were tested for the levels of RSV present.

[15] = in vitro; conditions: human
[16] = tested on: RSV-Long; assay: Viral RNA analysis (RiboGreen); format: cell-based, respiratory syncytial virus; conditions: for RNA Concentration: three days
Procedure: The method for analysis of viral RNA is as follows. Six well plates were infected with 1 ml stock of RSV-Long (10×TCID50) diluted 1:20 in infection medium (DMEM+2% FBS). The plates were incubated in 37° C. incubators for 60 min, after which the inoculum was removed and the plates were rinsed. […] Each concentration was added in duplicate. […] After three days, the culture supernatants were transferred into clean conical tubes and subjected to centrifugation at low speed to remove cell debris. […] RNA was extracted using a commercial RNA extraction kit purchased from Epicentre Technologies (Madison, WI). The procedure was performed according to the manufacturer's instructions, and samples were stored at −20° C. The level of viral RNA in each sample was determined using the RiboGreen® RNA quantitative kit (Molecular Probes, Eugene, Oreg.) according the manufacturer's instructions.

[17] = tested on: RSV-Long; assay: Time of addition, CPE assay; format: cell-based, respiratory syncytial virus; conditions: human respiratory syncytial virus
Procedure: Determine the Time of Addition for EB Fractions. […] This activity is related to the life cycle of the virus and the step in the cycle where the compounds act. In this example, experiments were performed to investigate the effect of the time of addition of EB fractionated products on anti-RSV activity.
Mechanism of action studies were performed as follows. Mechanism of action studies were performed using CJ4-16-4 in a CPE assay with Hep-2 cells.

[18] = tested on: RSV; assay: Limited pretreatment of host cells, CPE assay; format: cell-based, respiratory syncytial virus; conditions: removed before infection
Procedure: A limited pretreatment of host cells with EB fractions was investigated as follows. […] The cells were incubated in fresh medium without the test article. After 7 days, the viral inhibition was evaluated using CPE assay protocol.

[19] = 90 mg/kg/day B.I.D i.p. D0-D3, water, harvest day 4
[20] = human respiratory syncytial virus, HEp-2, Table 2, extracted fractions, average of two or three experiments

## O=C(/C=C/c1ccc(O)c(O)c1)O[C@H]1[C@H](O)C[C@](O)(C(=O)O)C[C@H]1OC(=O)/C=C/c1ccc(O)c(O)c1 [CJ2-27-4, 4,5-dicaffeoylquinic acid]
[1]
  EC50, RSV-A2: 0.521 µg/mL (≈ 1.01 µM)
[2]
  CC50, Vero: >200 µg/mL
[3]
  EC50, Herpes simplex virus type 1 (MacIntyre strain): >50 µg/mL
[4]
  EC50, RSV-Long (Cotton Rat adapted strain): 5.519 µg/mL (≈ 10.7 µM)
[5]; Hep-2 cells, CPE assay
  EC50, RSV-Long: 0.052 µg/mL (≈ 0.101 µM)
[6]
  EC50, Influenza A-Shangdong/09/93 (H3N2): >50 µg/mL
[7]
  EC50, Herpes simplex virus type 2 (MS-strain): >50 µg/mL
[8]
  CC50, Hep 2: >200 µg/mL
[9]
  CC50, MDCK: >200 µg/mL
[10]; Hep-2 cells, CPE assay
  EC50, RSV-B (Washington): 0.218 µg/mL (≈ 0.422 µM)

## NC(=O)c1ncn([C@@H]2O[C@H](CO)[C@@H](O)[C@H]2O)n1 [Ribavirin]
[11]; 3.1 μg/ml
  Mean Titer: 3 log 10
  Reduction of viral titer: 1 log10
[11]; 25.0 μg/ml
  Mean Titer: 2 log 10
  Reduction of viral titer: 2 log10
[12]
  IC50: 3.84 µg/mL (≈ 15.7 µM)
[13]
  CC50 at 7 days: > 100 µg/mL
[14]; 90 mg/kg/day B.I.D i.p. D0-D3, vs placebo
  Reduction: 2.9 Log 10
[14]; [19]
  RSV Pulmonary Titer Mean ± SD: 1.5 ± 1.8 log10/g lung
  RSV Pulmonary Titer in individual CR (A-D): 2.8 log10/g lung and 3.3 log10/g lung and 0 log10/g lung (2×)
[14]; Experiment 1
  reduction of mean viral titer: 2.5 logs
[14]; Experiment 1: 100 mg/kg/day i.p. (ribavirin 90 mg/kg/day), harvest Day 4
  RSV pulmonary Mean Titers ± SD: 3.1 ± 0.29 log 10
[14]; Experiment 2
  reduction of mean viral titer: 2.5 logs
[14]; Experiment 2: 100 mg/kg/day i.p. from Day -1 (ribavirin 180 mg/kg/day), harvest Day 3
  RSV pulmonary Mean Titers ± SD: 2.3 ± 0.4 log 10
[14]; Experiment 3
  reduction of mean viral titer: 2.5 logs
[14]; Experiment 3: 250 mg/kg/day i.p. from Day -1 (ribavirin 90 mg/kg/day), harvest Day 3
  RSV pulmonary Mean Titers ± SD: 2.2 ± 1.5 log 10
[14]; three experiments
  Overall Mean Titer: 2.53 ± 0.73 log 10
  reduction of overall mean viral titer: 2.5 logs
[14]; three experiments combined
  animals with no detectable virus: 1 out of 12
[15]
  CC50 at 7 days: 76.4 ± 4.4 µg/mL (≈ 313 µM)
[5]; [20]
  IC50: 3.8 ± 0.2 µg/mL (≈ 15.6 µM)
[16]; drug concentration 1 μg/ml
  RNA Concentration: 450 ng/mL
[16]; drug concentration 20 μg/ml
  RNA Concentration: 225 ng/mL
[16]; drug concentration increased from 1 to 20 μg/ml
  reduction of viral RNA: 2 fold
[17]; addition 0 h, 10×TCID50 RSV-Long, Hep-2
  IC50: 3.6 ± 0.36 µg/mL (≈ 14.7 µM)
[17]; addition +7 h post-infection
  IC50: 3.9 ± 0.64 µg/mL (≈ 16 µM)
[17]; addition +26 h post-infection
  IC50: 4.43 ± 0.88 µg/mL (≈ 18.1 µM)
[18]; human respiratory syncytial virus, pre-treatment time 4 hrs, read-out: IC50
  IC50: > 50 µg/mL
[18]; pre-treatment time 0 hrs
  IC50: >50 µg/mL
[18]; pre-treatment time 8 hrs
  IC50: >50 µg/mL
[18]; pre-treatment time 24 hrs
  IC50: >50 µg/mL
[10]; [20]
  IC50: 3.2 ± 0.5 µg/mL (≈ 13.1 µM)
